Measured values: ChEMBL document CHEMBL1136182, “Cage amines as the stopper inhibitors of cholinesterases” (Bioorg Med Chem Lett, 2003)

Tests used:
Butyrylcholinesterase = Butyrylcholinesterase (Equus caballus, UniProt Q9N1N9); test: Inhibitory activity against Butyrylcholinesterase
[1] = target: Acetylcholinesterase (Electrophorus electricus) (UniProt O42275); test: Selectivity ratio of inhibition of acetylcholinesterase-AChE to that of inhibition of butyrylcholinesterase-BChE
Acetylcholinesterase = Acetylcholinesterase (Electrophorus electricus, UniProt O42275); test: Inhibitory activity against acetylcholinesterase
Chain of Acetylcholinesterase (O42275 whole entry): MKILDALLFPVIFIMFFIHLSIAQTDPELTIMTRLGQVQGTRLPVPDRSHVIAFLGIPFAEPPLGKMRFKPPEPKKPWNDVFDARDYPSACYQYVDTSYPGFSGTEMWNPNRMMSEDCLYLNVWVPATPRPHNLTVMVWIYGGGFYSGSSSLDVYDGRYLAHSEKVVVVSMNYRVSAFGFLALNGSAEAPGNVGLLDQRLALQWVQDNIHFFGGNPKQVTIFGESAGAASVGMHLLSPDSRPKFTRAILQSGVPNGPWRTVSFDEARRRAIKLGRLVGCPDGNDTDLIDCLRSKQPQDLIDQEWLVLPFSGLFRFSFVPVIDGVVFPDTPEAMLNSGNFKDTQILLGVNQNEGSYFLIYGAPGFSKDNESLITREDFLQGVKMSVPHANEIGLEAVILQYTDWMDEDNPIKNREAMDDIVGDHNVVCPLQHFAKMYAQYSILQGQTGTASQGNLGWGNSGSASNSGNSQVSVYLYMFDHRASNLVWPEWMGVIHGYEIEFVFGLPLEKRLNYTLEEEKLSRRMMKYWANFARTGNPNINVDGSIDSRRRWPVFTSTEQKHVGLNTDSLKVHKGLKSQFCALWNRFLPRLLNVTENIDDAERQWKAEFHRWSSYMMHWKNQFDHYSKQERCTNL

Chain of Acetylcholinesterase (Electrophorus electricus) (O42275 24-633 limits assumed): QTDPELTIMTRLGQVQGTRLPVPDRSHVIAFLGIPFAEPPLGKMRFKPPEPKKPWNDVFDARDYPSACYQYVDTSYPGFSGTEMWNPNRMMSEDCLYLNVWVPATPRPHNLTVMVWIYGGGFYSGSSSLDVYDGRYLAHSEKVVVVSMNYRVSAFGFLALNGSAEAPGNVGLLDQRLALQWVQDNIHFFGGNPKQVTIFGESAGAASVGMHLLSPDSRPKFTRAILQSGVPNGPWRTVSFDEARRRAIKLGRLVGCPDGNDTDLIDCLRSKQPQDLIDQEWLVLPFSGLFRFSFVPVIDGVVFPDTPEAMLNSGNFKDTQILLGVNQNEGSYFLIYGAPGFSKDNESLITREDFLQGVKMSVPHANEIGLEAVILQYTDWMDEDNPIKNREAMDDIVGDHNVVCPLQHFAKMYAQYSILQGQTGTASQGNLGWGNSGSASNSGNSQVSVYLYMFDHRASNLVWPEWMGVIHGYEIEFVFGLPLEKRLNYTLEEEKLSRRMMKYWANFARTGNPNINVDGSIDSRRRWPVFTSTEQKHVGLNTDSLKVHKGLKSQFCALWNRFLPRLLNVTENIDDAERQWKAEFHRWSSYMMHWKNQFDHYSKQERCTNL
Chain of Butyrylcholinesterase (Q9N1N9 whole entry): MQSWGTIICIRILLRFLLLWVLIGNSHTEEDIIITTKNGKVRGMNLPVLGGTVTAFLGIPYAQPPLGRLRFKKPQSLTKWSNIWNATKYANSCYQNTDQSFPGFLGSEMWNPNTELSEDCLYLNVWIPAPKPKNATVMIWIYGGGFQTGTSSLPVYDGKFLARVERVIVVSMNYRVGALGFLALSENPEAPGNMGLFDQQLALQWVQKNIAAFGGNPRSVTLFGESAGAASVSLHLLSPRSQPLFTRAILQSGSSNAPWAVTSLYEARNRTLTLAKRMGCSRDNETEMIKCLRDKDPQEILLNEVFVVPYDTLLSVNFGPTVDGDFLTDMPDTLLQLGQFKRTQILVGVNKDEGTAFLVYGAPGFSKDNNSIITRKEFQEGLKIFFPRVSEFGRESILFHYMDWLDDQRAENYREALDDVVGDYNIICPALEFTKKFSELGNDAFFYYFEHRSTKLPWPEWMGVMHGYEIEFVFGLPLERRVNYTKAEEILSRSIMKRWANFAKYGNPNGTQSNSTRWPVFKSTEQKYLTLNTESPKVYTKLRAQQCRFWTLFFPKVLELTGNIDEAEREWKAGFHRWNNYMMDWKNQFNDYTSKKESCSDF

SMILES	Ki (Butyrylcholinesterase)	Ratio [1]	Ki (Acetylcholinesterase)
COc1cc(CNC2C3N(Cc4cc(OC)cc(OC)c4)C4C(N2Cc2cc(OC)cc(OC)c2)N(Cc2cc(OC)cc(OC)c2)C2(CC2N3Cc2cc(OC)cc(OC)c2)N4Cc2cc(OC)cc(OC)c2)cc(OC)c1 (centres undefined)	60 nM	2.2	130 nM
c1cc2c(cc1CNC1C3N(Cc4ccc5c(c4)OCO5)C4C(N1Cc1ccc5c(c1)OCO5)N(Cc1ccc5c(c1)OCO5)C1(CC1N3Cc1ccc3c(c1)OCO3)N4Cc1ccc3c(c1)OCO3)OCO2 (centres undefined)	310 nM	1	320 nM
Clc1ccccc1CNC1C2N(Cc3ccccc3Cl)C3C(N1Cc1ccccc1Cl)N(Cc1ccccc1Cl)C1(CC1N2Cc1ccccc1Cl)N3Cc1ccccc1Cl (centres undefined)	10 nM	3.9	39 nM
